Data taken from ChEMBL document CHEMBL1275583, “First report of KPC-2-producing Klebsiella pneumoniae strains in Brazil” (2009).
Converted amounts (≈) assume the structure as drawn.

How the values were obtained:
Klebsiella pneumoniae [1] = assay: Antibacterial activity against Klebsiella pneumoniae urine isolate A28009 PFGE pattern A expressing KPC-2, TEM-1, SHV-11, CTX-M-2 beta-lactamase by agar dilution method; assay type: functional
Klebsiella pneumoniae [2] = assay: Antibacterial activity against Klebsiella pneumoniae blood isolate A28008 PFGE pattern A expressing KPC-2, TEM-1, SHV-11, CTX-M-2 beta-lactamase by agar dilution method; assay type: functional
Klebsiella pneumoniae [3] = assay: Antibacterial activity against Klebsiella pneumoniae blood isolate A28006 PFGE pattern A expressing KPC-2, TEM-1, SHV-11, CTX-M-2 beta-lactamase by agar dilution method; assay type: functional
Escherichia coli [4] = assay: Antibacterial activity against Escherichia coli DH10B by agar dilution method; assay type: functional; conditions: K-12 DH10B
Klebsiella pneumoniae [5] = assay: Antibacterial activity against Klebsiella pneumoniae urine isolate A28011 PFGE pattern A expressing KPC-2 CTX-M-2 beta-lactamase by agar dilution method; assay type: functional
Escherichia coli [6] = assay: microbe, parasite or virus in culture; conditions: K-12 DH10B
Description: (§1) Antibacterial activity against Escherichia coli DH10B expressing KPC-2 CTX-M-2 by agar dilution method

Klebsiella pneumoniae [7] = assay: Antibacterial activity against Klebsiella pneumoniae urine isolate A28009 PFGE pattern A expressing KPC-2, TEM-1, SHV-11, CTX-M-2 beta-lactamase by agar dilution method in presence of Tazobactam; assay type: functional
Klebsiella pneumoniae [8] = assay: Antibacterial activity against Klebsiella pneumoniae blood isolate A28008 PFGE pattern A expressing KPC-2, TEM-1, SHV-11, CTX-M-2 beta-lactamase by agar dilution method in presence of Tazobactam; assay type: functional
Klebsiella pneumoniae [9] = assay: Antibacterial activity against Klebsiella pneumoniae blood isolate A28006 PFGE pattern A expressing KPC-2, TEM-1, SHV-11, CTX-M-2 beta-lactamase by agar dilution method in presence of Tazobactam; assay type: functional
Klebsiella pneumoniae [10] = assay: Antibacterial activity against Klebsiella pneumoniae urine isolate A28011 PFGE pattern A expressing KPC-2, CTX-M-2 beta-lactamase by agar dilution method in presence of Tazobactam; assay type: functional
Escherichia coli [11] = conditions: K-12 DH10B
Description: as §1

Klebsiella pneumoniae [12] = assay: Antibacterial activity against Klebsiella pneumoniae urine isolate A28009 PFGE pattern A expressing KPC-2, TEM-1, SHV-11, CTX-M-2 beta-lactamase by Etest method; assay type: functional
Klebsiella pneumoniae [13] = assay: Antibacterial activity against Klebsiella pneumoniae blood isolate A28008 PFGE pattern A expressing KPC-2, TEM-1, SHV-11, CTX-M-2 beta-lactamase by Etest method; assay type: functional
Klebsiella pneumoniae [14] = assay: Antibacterial activity against Klebsiella pneumoniae blood isolate A28006 PFGE pattern A expressing KPC-2, TEM-1, SHV-11, CTX-M-2 beta-lactamase by Etest method; assay type: functional
Escherichia coli [15] = assay: Antibacterial activity against Escherichia coli DH10B expressing KPC-2 CTX-M-2 by Etest method; assay type: functional; conditions: K-12 DH10B
Escherichia coli [16] = assay: Antibacterial activity against Escherichia coli DH10B by Etest method; assay type: functional; conditions: K-12 DH10B
Klebsiella pneumoniae [17] = assay: Antibacterial activity against Klebsiella pneumoniae urine isolate A28011 PFGE pattern A expressing KPC-2, CTX-M-2 beta-lactamase by Etest method; assay type: functional

Compound | MIC (Klebsiella pneumoniae [1]) [µg/mL] | MIC (Klebsiella pneumoniae [2]) [µg/mL] | MIC (Klebsiella pneumoniae [3]) [µg/mL] | MIC (Escherichia coli [4]) [µg/mL] | MIC (Klebsiella pneumoniae [5]) [µg/mL] | MIC (Escherichia coli [6]) [µg/mL] | other results
CO/N=C(\C(=O)N[C@@H]1C(=O)N2C(C(=O)O)=C(CSc3nc(=O)c(O)nn3C)CS[C@H]12)c1csc(N)n1 [CEFTRIAXONE] | > 256 | > 256 | > 256 | 0.06 (≈ 0.108 µM) | > 256 | > 256 | 
C[C@H]1[C@H](NC(=O)/C(=N\OC(C)(C)C(=O)O)c2csc(N)n2)C(=O)N1S(=O)(=O)O [AZTREONAM] | > 256 | 64 (≈ 147 µM) |  |  | > 256 | 32 (≈ 73.5 µM) | 
CC(C)(O/N=C(\C(=O)N[C@@H]1C(=O)N2C(C(=O)[O-])=C(C[n+]3ccccc3)CS[C@H]12)c1csc(N)n1)C(=O)O [CEFTAZIDIME] | 32 (≈ 58.5 µM) | 16 (≈ 29.3 µM) | 16 (≈ 29.3 µM) | 0.25 (≈ 0.457 µM) | 64 (≈ 117 µM) | 4 (≈ 7.32 µM) | 
CO/N=C(\C(=O)N[C@@H]1C(=O)N2C(C(=O)[O-])=C(C[N+]3(C)CCCC3)CS[C@H]12)c1csc(N)n1 | 64 (≈ 133 µM) | 32 (≈ 66.6 µM) | 128 (≈ 266 µM) | 0.25 (≈ 0.52 µM) | > 256 | 2 (≈ 4.16 µM) | 
CO/N=C(\C(=O)N[C@@H]1C(=O)N2C(C(=O)O)=C(COC(C)=O)CS[C@H]12)c1csc(N)n1 [CEFOTAXIME] | > 256 | > 256 | > 256 | < 0.25 | > 256 | 4 (≈ 8.78 µM) | 
C[C@@H](O)[C@H]1C(=O)N2C(C(=O)O)=C(SCCNC=N)C[C@H]12 [IMIPENEM ANHYDROUS] | 32 (≈ 107 µM) | 32 (≈ 107 µM) | 4 (≈ 13.4 µM) |  | 16 (≈ 53.4 µM) | 2 (≈ 6.68 µM) | 
CO[C@@]1(NC(=O)Cc2cccs2)C(=O)N2C(C(=O)O)=C(COC(N)=O)CS[C@@H]21 [CEFOXITIN] | 64 (≈ 150 µM) | 16 (≈ 37.4 µM) | 32 (≈ 74.9 µM) | 4 (≈ 9.36 µM) | > 256 | 8 (≈ 18.7 µM) | 
CCN1CCN(C(=O)N[C@@H](C(=O)N[C@@H]2C(=O)N3[C@@H]2SC(C)(C)[C@@H]3C(=O)O)c2ccccc2)C(=O)C1=O [PIPERACILLIN] |  |  |  |  |  |  | MIC (Klebsiella pneumoniae [7]): 16 µg/mL; MIC (Klebsiella pneumoniae [8]): 16 µg/mL; MIC (Klebsiella pneumoniae [9]): 16 µg/mL; MIC (Klebsiella pneumoniae [10]): 8 µg/mL
GENTAMICIN | 1 | 1 | 1 | 0.12 | 1 |  | MIC (Escherichia coli [11]): 0.12 µg/mL
C[C@@H](O)[C@H]1C(=O)N2C(C(=O)O)=C(S[C@@H]3CN[C@H](C(=O)N(C)C)C3)[C@H](C)[C@H]12 [MEROPENEM] | > 32 | 4 (≈ 10.4 µM) | 32 (≈ 83.4 µM) | 0.25 (≈ 0.652 µM) | > 32 | 0.5 (≈ 1.3 µM) | 
POLYMYXIN B | 2 | 2 | 2 | 0.38 | 2 |  | MIC (Escherichia coli [11]): 0.38 µg/mL
CN(C)c1cc(NC(=O)CNC(C)(C)C)c(O)c2c1C[C@H]1C[C@H]3[C@H](N(C)C)C(O)=C(C(N)=O)C(=O)[C@@]3(O)C(O)=C1C2=O [TIGECYCLINE] |  |  |  |  |  |  | MIC (Klebsiella pneumoniae [12]): 0.38 µg/mL (≈ 0.649 µM); MIC (Klebsiella pneumoniae [13]): 0.38 µg/mL (≈ 0.649 µM); MIC (Klebsiella pneumoniae [14]): 0.38 µg/mL (≈ 0.649 µM); MIC (Escherichia coli [15]): 0.06 µg/mL (≈ 0.102 µM); MIC (Escherichia coli [16]): 0.06 µg/mL (≈ 0.102 µM); MIC (Klebsiella pneumoniae [17]): 0.5 µg/mL (≈ 0.854 µM)
